Results on 51 molecules are retold here after PubChem BioAssay AID1949 (Southern Research Institute, 2009).

In brackets after ≈: the same amount, converted by molar mass. Inconclusive results are not listed. Activity calls are given as the source filed them. No rule for the calls is given here.

This test concerns M. tuberculosis H37Rv growth inhibition. The experiment in a line: Mycobacterium tuberculosis H37Rv growth inhibition, cell based, confirmatory dose response (AID 1949).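 Also: bacteria grown 7 days with compound before Alamar blue readout.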

Regarding `CCc1nc2ccccc2n1CCCOc1ccccc1`, the half-maximal inhibitory concentration (IC50) is 0.5 µg/mL (≈ 1.78 µM).

Take `CCOC(=O)C(C)Oc1ccc2c(=O)c(Oc3ccccc3Cl)coc2c1` (stereo unspecified): the IC50 is 8.87 µg/mL (≈ 22.8 µM).

`COC(=O)COc1ccc(S(=O)(=O)Nc2cccc(Cl)c2C)cc1`: the IC50 is 9.72 µg/mL (≈ 26.3 µM).

In the case of `Cc1ccc(Cl)cc1N1CCN(CC(O)COC2CC(C)CC(C)(C)C2)CC1` (stereo unspecified), the concentration for half-maximal inhibition (IC50) was 7.82 µg/mL (≈ 19.1 µM).

Regarding `CCN1CCN(c2ccc(NC(=O)c3cc(Br)cc(C)c3OC)cc2Cl)CC1`, the concentration for half-maximal inhibition (IC50) was 4.8 µg/mL (≈ 10.3 µM).

As for `CC1C(c2ccccc2)=[N+]([O-])C(C)(c2ccc(F)cc2)N1O` (stereo unspecified), the IC50 is > 50 µg/mL (inactive).

Consider `Oc1ccccc1-c1n[nH]c(/C=C/c2ccc(Cl)cc2)n1`, for which the IC50 was 2.73 µg/mL (≈ 9.17 µM).

As for `CCOC(=O)COc1c(Cl)cc(/C=C(/C#N)c2nc3ccc(OC)cc3[nH]2)cc1Cl`, the 50% inhibitory concentration (IC50) is 0.2 µg/mL (≈ 0.448 µM).

On to `CN1C(=O)N(C)c2ccc(C=O)c3cccc1c23`, for which the IC50 was > 50 µg/mL (inactive).

For `CCC(=O)c1ccc(OCC(O)CN2CCN(c3ccc(C)cc3C)CC2)cc1` (stereo unspecified), the IC50 is > 50 µg/mL (inactive).

With `COc1ccc(CCNC(=S)N2CCN(c3ccc(Cl)c(Cl)c3)CC2)cc1OC`, the IC50 was 6.47 µg/mL (≈ 14.2 µM).

On to `COC(=O)c1c(C)oc2ccc(OC(=O)c3cccc([N+](=O)[O-])c3)cc12`, for which the IC50 is 3.65 µg/mL (≈ 10.3 µM).

Consider `O=C(Nc1cccc(CCc2ccccn2)c1)NC1CCCCC1`, for which the IC50 is 38.7 µg/mL (≈ 120 µM).

`Cc1ccc(C)c(N2C(=O)c3cccc4c([N+](=O)[O-])ccc(c34)C2=O)c1`: the IC50 is 0.76 µg/mL (≈ 2.19 µM).

As to `Cc1cc(C)c(C(=O)/C=C/c2cccc([N+](=O)[O-])c2)cc1C`, the concentration for half-maximal inhibition (IC50) is 0.36 µg/mL (≈ 1.22 µM).

Regarding `CCOc1ccc2nc3cc(N)ccc3c(N)c2c1`, the half-inhibitory concentration (IC50) is 0.81 µg/mL (≈ 3.2 µM).

In the case of `Cc1cccc(C(=O)NC(=S)N2CCC(C)CC2)c1`, the concentration for half-maximal inhibition (IC50) is 2.97 µg/mL (≈ 10.7 µM).

`Nc1cc(Oc2ccc(O)c(N)c2)ccc1O`: the 50% inhibitory concentration (IC50) was 6.13 µg/mL (≈ 26.4 µM).

Consider `CCOC(=O)COc1ccc(-c2ccc(C)cc2)cc1`, for which the IC50 was 0.33 µg/mL (≈ 1.22 µM).

In the case of `CCCn1nnnc1NC(=O)c1cccs1`, the IC50 was 1.67 µg/mL (≈ 7.04 µM).

For `O=C(O)c1ccc(C2Nc3ccc([N+](=O)[O-])cc3C3c4ccccc4CC23)cc1` (stereo unspecified), the IC50 was > 50 µg/mL (inactive).

As to `Cc1ccc(-c2csc3ncn(C(C)C(=O)OCc4ccccc4Cl)c(=O)c23)cc1` (stereo unspecified), the IC50 was 0.74 µg/mL (≈ 1.69 µM).

As for `Cc1ccc(OCCN2CCN(c3nc(NCc4ccco4)c4ccccc4n3)CC2)cc1`, the concentration for half-maximal inhibition (IC50) was 6.3 µg/mL (≈ 14.2 µM).

Regarding `Cc1ccccc1NC(=O)c1cc(Cl)ccc1O`, the half-maximal inhibitory concentration (IC50) is 2.6 µg/mL (≈ 9.93 µM).

`O=C(CC12CC3CC(CC(C3)C1)C2)NC(=S)Nc1cccc(Br)c1`: the IC50 was > 50 µg/mL (inactive).

On to `Cc1ccc([N+](=O)[O-])cc1NC(=O)c1cc(Cl)ccc1O`, for which the IC50 is 29.7 µg/mL (≈ 96.8 µM).

Take `Cc1oc2ccc(OC(=O)c3ccc(F)cc3)cc2c1C(=O)OC(C)C`: the concentration for half-maximal inhibition (IC50) was 2.4 µg/mL (≈ 6.73 µM).

Take `O=C(Oc1cccc2cccnc12)c1ccc(S(=O)(=O)N2CCCCC2)cc1`: the concentration for half-maximal inhibition (IC50) is 1.48 µg/mL (≈ 3.73 µM).

Consider `CCn1cc(C(=O)O)c(=O)c2cc(F)c(N3CCN(C(=O)Nc4ccccc4)CC3)cc21`, for which the IC50 was > 50 µg/mL (inactive).

For `COC(=O)c1ccc(N2C(=O)CC(N(CCc3ccccc3)C(=S)Nc3ccccc3)C2=O)cc1` (stereo unspecified), the concentration for half-maximal inhibition (IC50) was 2.77 µg/mL (≈ 5.68 µM).

For `COc1ccc(-c2csc(Nc3ccc(S(N)(=O)=O)cc3)n2)cc1`, the IC50 is 3.73 µg/mL (≈ 10.3 µM).

Consider `COc1ccc(-c2cc(=O)oc3cc(OCC(=O)OCc4ccccc4)ccc23)cc1`, for which the IC50 was 16.4 µg/mL (≈ 39.3 µM).

As to `CCOC(=O)C1=C(C)N(c2ccc(Br)cc2)C(=O)C1`, the concentration for half-maximal inhibition (IC50) is 3.23 µg/mL (≈ 9.96 µM).

Turning to `COc1ccccc1-c1c(C)oc2cc(OCC(=O)OCc3ccccc3)ccc2c1=O`, the half-maximal inhibitory concentration (IC50) was 0.36 µg/mL (≈ 0.836 µM).

Turning to `O=C(Nc1ccc(F)c(Cl)c1)c1ccc([N+](=O)[O-])o1`, the 50% inhibitory concentration (IC50) is less than 0.1 µg/mL.

For `N#Cc1cc(-c2nc3ccccc3[nH]2)c(N)n2c1nc1ccccc12`, the half-maximal inhibitory concentration (IC50) was 11.5 µg/mL (≈ 35.5 µM).

On to `CC1CCN(CCNC(=S)Nc2ccc(F)cc2)CC1`, for which the IC50 is 1.54 µg/mL (≈ 5.21 µM).

Turning to `O=C(CC(O)(C(F)(F)F)C(F)(F)F)Nc1ccc(Cl)c(Cl)c1`, the concentration for half-maximal inhibition (IC50) was 1.51 µg/mL (≈ 4.08 µM).

Consider `CCc1ccc(-c2nn(-c3ccccc3)cc2CO)cc1`, for which the 50% inhibitory concentration (IC50) is 5.36 µg/mL (≈ 19.3 µM).

Consider `O=C(Nc1ccc([N+](=O)[O-])cc1)c1nc[nH]c1C(=O)NCc1ccccc1`, for which the half-inhibitory concentration (IC50) was 7.92 µg/mL (≈ 21.7 µM).

As to `O=C(CSc1nc2ccccc2c(=O)[nH]1)NCc1ccccc1`, the half-inhibitory concentration (IC50) is 0.28 µg/mL (≈ 0.86 µM).

As to `CSc1ncc(C(=O)Nc2cccc(C(F)(F)F)c2)cn1`, the IC50 is less than 0.1 µg/mL.

For the molecule `O=S(=O)(CCSc1nc2ccccc2s1)c1nc2ccccc2s1`, the 50% inhibitory concentration (IC50) is 7.23 µg/mL (≈ 18.4 µM).

Turning to `C=CCc1cc(C)ccc1OCCCn1ccnc1`, the 50% inhibitory concentration (IC50) was 3.52 µg/mL (≈ 13.7 µM).

Turning to `O=C(O)c1ccc(-n2nnnc2SCc2ccccc2F)cc1`, the IC50 is > 50 µg/mL (inactive).

On to `O=c1oc(-c2ccccc2F)nc2sc3c(c12)CCCC3`, for which the IC50 is > 50 µg/mL (inactive).

As for `O=C(CC12CC3CC(CC(C3)C1)C2)Nc1ccc(F)c(Cl)c1`, the IC50 is 3.02 µg/mL (≈ 9.38 µM).

`CCCC(=O)NC(=S)Nc1cccc(C(F)(F)F)c1`: the IC50 is 2.69 µg/mL (≈ 9.27 µM).

As for `COc1ccc(N2CCN(c3ncnc4sc5c(c34)CCCC5)CC2)cc1`, the IC50 is > 50 µg/mL (inactive).

On to `Cc1ccc(C(=O)Nc2cc(C#N)c3[nH]c4ccccc4n3c2=O)cc1`, for which the concentration for half-maximal inhibition (IC50) was 6.55 µg/mL (≈ 19.1 µM).

`Cc1ccccc1OC(=O)c1sc2ccccc2c1Cl`: the IC50 is 2.05 µg/mL (≈ 6.77 µM).

What is called IC50 is the concentration that inhibits the measured activity by half.
